Assays:
[1] = Inhibition of cell growth in mouse 32D cells transfected with FLT3 ITD F691L mutant incubated for 2 days; format: functional; conditions: 48 h, time 2 day
[2] = Inhibition of cell growth in mouse 32D cells transfected with FLT3 ITD mutant incubated for 2 days; format: functional; conditions: 48 h, time 2 day

CCCNc1nc(Nc2ccc(C#N)cc2)ncc1C#CCCCNC(=O)[C@H](C)N(C)C(=O)/C=C/CN(C)C [FF-10101]
GI50 [1]: 10 nM
GI50 [2]: 1.9 nM

Source: ChEMBL document CHEMBL5500390, “Overcoming Secondary Mutations of Type II Kinase Inhibitors” (J Med Chem, 2024)
